Test results from US8952024B2, “Herbicidal pyrimidone derivatives” (E I du Pont de Nemours and Company, priority 2009, dated 2015).

Key:
Assay type in all cases: in vivo
[1] = test system: ducksalad (Heteranthera limosa); assay: Test B flooded paddy test; conditions: for Plant response rating, Flood, Ducksalad: 250 g ai/ha, flooded paddy test, visual rating on 0 to 100 scale (0 no effect, 100 complete control) after 13 to 15 days; for Plant response rating, Ducksalad: Flood (flooded paddy test), 13 to 15 days
Outline: (§1)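 Flooded-pot test: water raised to 3 cm above soil when treating, compound put in the water, level unchanged thereafter. Plants were at 2 leaves. Readout after 13 to 15 days, visual, relative to controls; 0 signifies no effect and 100 complete control.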

[2] = test system: barnyardgrass (Echinochloa crus-galli); assay: Test B flooded paddy test; conditions: for Plant response rating, Flood, Barnyardgrass: 250 g ai/ha, flooded paddy test, visual rating on 0 to 100 scale (0 no effect, 100 complete control) after 13 to 15 days; for Plant response rating, Barnyardgrass: Flood (flooded paddy test), 13 to 15 days
Outline: as §1

[3] = test system: rice (Oryza sativa); assay: Test B flooded paddy test; conditions: for Plant response rating, Flood, Rice: 250 g ai/ha, flooded paddy test, visual rating on 0 to 100 scale (0 no effect, 100 complete control) after 13 to 15 days; for Plant response rating, Rice: Flood (flooded paddy test), 13 to 15 days
Outline: as §1

[4] = test system: umbrella sedge (Cyperus difformis); assay: Test B flooded paddy test; conditions: for Plant response rating, Flood, Sedge, Umbrella: 250 g ai/ha, flooded paddy test, visual rating on 0 to 100 scale (0 no effect, 100 complete control) after 13 to 15 days; for Plant response rating, Sedge, Umbrella: Flood (flooded paddy test), 13 to 15 days
Outline: as §1

[5] = test system: morningglory (Ipomoea spp.); assay: Test A pre-/postemergence plant response
From the text: (§2) Seeds of barnyardgrass (Echinochloa crus-galli), large crabgrass (Digitaria sanguinalis), giant foxtail (Setaria faberii), morningglory (Ipomoea spp.), pigweed (Amaranthus retroflexus), velvetleaf (Abutilon theophrasti), wheat (Triticum aestivum) and corn (Zea mays) were planted into a blend of loam soil and sand and treated preemergence with a directed soil spray using test chemicals formulated in a non-phytotoxic solvent mixture which included a surfactant. At the same time these species were also treated with postemergence applications of test compounds formulated in the same manner.
(§3) Plants ranged in height from two to ten cm and were in the one- to two-leaf stage for the postemergence treatment. Treated plants and untreated controls were maintained in a greenhouse for approximately ten days, after which time all treated plants were compared to untreated controls and visually evaluated for injury. Plant response ratings, summarized in Table A, are based on a 0 to 100 scale where 0 is no effect and 100 is complete control. A dash (-) response means no test result.

[6] = test system: barnyardgrass (Echinochloa crus-galli); assay: Test A pre-/postemergence plant response
From the text: as §2, §3

[7] = test system: wheat (Triticum aestivum); assay: Test A pre-/postemergence plant response
From the text: as §2, §3

[8] = test system: corn (Zea mays); assay: Test A pre-/postemergence plant response
From the text: as §2, §3

[9] = test system: giant foxtail (Setaria faberii); assay: Test A pre-/postemergence plant response
From the text: as §2, §3

[10] = test system: velvetleaf (Abutilon theophrasti); assay: Test A pre-/postemergence plant response
From the text: as §2, §3

[11] = test system: large crabgrass (Digitaria sanguinalis); assay: Test A pre-/postemergence plant response
From the text: as §2, §3

[12] = test system: pigweed (Amaranthus retroflexus); assay: Test A pre-/postemergence plant response
From the text: as §2, §3

[13] = 62 g ai/ha, scale of 0 to 100 where 0 is no effect and 100 is complete control
[14] = 125 g ai/ha, scale 0 to 100, 0 is no effect, 100 is complete control
[15] = Flood, 31 g ai/ha, scale 0 to 100 (0 no effect, 100 complete control)
[16] = Postemergence, 125 g ai/ha, 0 to 100 scale where 0 is no effect and 100 is complete control
[17] = Preemergence, 125 g ai/ha, 0 to 100 scale, 0 = no effect, 100 = complete control
[18] = Preemergence, 500 g ai/ha, 0 to 100 scale, 0 = no effect, 100 = complete control
[19] = Postemergence, 500 g ai/ha, visual injury, 0 to 100 scale (0 no effect, 100 complete control), approx. ten days
[20] = Postemergence, 500 g ai/ha, 0 to 100 scale, 0 = no effect, 100 = complete control, approx. ten days
[21] = Preemergence, 500 g ai/ha, visual injury, 0 to 100 scale (0 no effect, 100 complete control), approx. ten days
[22] = 31 g ai/ha, scale of 0 to 100 where 0 is no effect and 100 is complete control
[23] = Postemergence, 125 g ai/ha, visual injury, 0 to 100 scale (0 no effect, 100 complete control), approx. ten days

Compound: O=C1CCCC(O)=C1C(=O)c1cnc(-c2cccc(C(F)(F)F)c2)n(C2CCCCC2)c1=O [Compound 195]
- Plant response rating, Flood, Ducksalad [1]: 85
- Plant response rating, Ducksalad [1, 13]: 50
- Plant response rating, Ducksalad [1, 14]: 70
- Ducksalad plant response rating [1, 15]: 0
- Plant response rating, Flood, Barnyardgrass [2]: 20
- Plant response rating, Barnyardgrass [2, 13]: 0
- Plant response rating, Barnyardgrass [2, 14]: 0
- Barnyardgrass plant response rating [2, 15]: 0
- Plant response rating, Flood, Rice [3]: 15
- Plant response rating, Rice [3, 13]: 0
- Plant response rating, Rice [3, 14]: 0
- Rice plant response rating [3, 15]: 0
- Plant response rating, Flood, Sedge, Umbrella [4]: 65
- Plant response rating, Sedge, Umbrella [4, 13]: 0
- Plant response rating, Sedge, Umbrella [4, 14]: 50
- Sedge, Umbrella plant response rating [4, 15]: 0
- Plant response rating, Morningglory [5, 16]: 60
- Plant response rating, Morningglory [5, 17]: 0
- Plant response rating, Morningglory [5, 18]: 0
- Plant response rating, Barnyardgrass [6, 16]: 70
- Barnyardgrass plant response rating [6, 19]: 90
- Plant response rating, Barnyardgrass [6, 17]: 0
- Plant response rating, Barnyardgrass [6, 18]: 10
- Plant response rating, Wheat [7, 16]: 0
- Wheat plant response rating [7, 19]: 0
- Plant response rating, Wheat [7, 17]: 0
- Plant response rating, Wheat [7, 18]: 20
- Plant response rating, Corn [8, 16]: 0
- Corn plant response rating [8, 19]: 20
- Plant response rating, Corn [8, 17]: 0
- Plant response rating, Corn [8, 18]: 0
- Plant response rating, Foxtail, Giant [9, 16]: 30
- Foxtail, Giant plant response rating [9, 19]: 70
- Plant response rating, Foxtail, Giant [9, 17]: 0
- Plant response rating, Foxtail, Giant [9, 18]: 30
- Plant response rating, Velvetleaf [10, 16]: 100
- Velvetleaf plant response rating [10, 19]: 100
- Plant response rating, Velvetleaf [10, 17]: 0
- Plant response rating, Velvetleaf [10, 18]: 50
- Plant response rating, Crabgrass, Large [11, 16]: 40
- Crabgrass, Large plant response rating [11, 19]: 90
- Plant response rating, Crabgrass, Large [11, 17]: 0
- Plant response rating, Crabgrass, Large [11, 18]: 50
- Plant response rating, Pigweed [12, 16]: 90
- Pigweed plant response rating [12, 19]: 100
- Plant response rating, Pigweed [12, 17]: 0
- Plant response rating, Pigweed [12, 18]: 10

Compound: CCCCn1c(-c2cccc(Br)c2)ncc(C(=O)C2=C(O)CCCC2=O)c1=O [Compound 138]
- Plant response rating, Flood, Ducksalad [1]: 80
- Plant response rating, Ducksalad [1, 13]: 70
- Plant response rating, Flood, Barnyardgrass [2]: 25
- Plant response rating, Barnyardgrass [2, 13]: 0
- Plant response rating, Flood, Rice [3]: 15
- Plant response rating, Rice [3, 13]: 0
- Plant response rating, Flood, Sedge, Umbrella [4]: 80
- Plant response rating, Sedge, Umbrella [4, 13]: 70
- Plant response rating, Morningglory [5, 16]: 50
- Plant response rating, Morningglory [5, 20]: 100
- Plant response rating, Morningglory [5, 17]: 0
- Plant response rating, Morningglory [5, 21]: 0
- Plant response rating, Barnyardgrass [6, 16]: 90
- Plant response rating, Barnyardgrass [6, 20]: 90
- Plant response rating, Barnyardgrass [6, 17]: 20
- Plant response rating, Barnyardgrass [6, 21]: 90
- Plant response rating, Wheat [7, 16]: 0
- Plant response rating, Wheat [7, 20]: 20
- Plant response rating, Wheat [7, 17]: 0
- Plant response rating, Wheat [7, 21]: 20
- Plant response rating, Corn [8, 16]: 20
- Plant response rating, Corn [8, 20]: 20
- Plant response rating, Corn [8, 17]: 0
- Plant response rating, Corn [8, 21]: 20
- Plant response rating, Foxtail, Giant [9, 16]: 60
- Plant response rating, Foxtail, Giant [9, 20]: 90
- Plant response rating, Foxtail, Giant [9, 17]: 30
- Plant response rating, Foxtail, Giant [9, 21]: 70
- Plant response rating, Velvetleaf [10, 16]: 100
- Plant response rating, Velvetleaf [10, 20]: 100
- Plant response rating, Velvetleaf [10, 17]: 20
- Plant response rating, Velvetleaf [10, 21]: 80
- Plant response rating, Crabgrass, Large [11, 16]: 70
- Plant response rating, Crabgrass, Large [11, 20]: 90
- Plant response rating, Crabgrass, Large [11, 17]: 40
- Plant response rating, Crabgrass, Large [11, 21]: 70
- Plant response rating, Pigweed [12, 16]: 100
- Plant response rating, Pigweed [12, 20]: 100
- Plant response rating, Pigweed [12, 17]: 50
- Plant response rating, Pigweed [12, 21]: 90

Compound: O=C1CCCC(O)=C1C(=O)c1cnc(-c2ccccc2)n(-c2ccc(F)cc2F)c1=O [Compound 57]
- Plant response rating, Flood, Ducksalad [1]: 60
- Plant response rating, Ducksalad [1, 22]: 0
- Plant response rating, Ducksalad [1, 13]: 0
- Plant response rating, Ducksalad [1, 14]: 40
- Plant response rating, Flood, Barnyardgrass [2]: 25
- Plant response rating, Barnyardgrass [2, 22]: 0
- Plant response rating, Barnyardgrass [2, 13]: 0
- Plant response rating, Barnyardgrass [2, 14]: 20
- Plant response rating, Flood, Rice [3]: 25
- Plant response rating, Rice [3, 22]: 0
- Plant response rating, Rice [3, 13]: 0
- Plant response rating, Rice [3, 14]: 15
- Plant response rating, Flood, Sedge, Umbrella [4]: 75
- Plant response rating, Sedge, Umbrella [4, 22]: 0
- Plant response rating, Sedge, Umbrella [4, 13]: 0
- Plant response rating, Sedge, Umbrella [4, 14]: 50
- Morningglory plant response rating [5, 23]: 50
- Plant response rating, Morningglory [5, 20]: 60
- Plant response rating, Morningglory [5, 17]: 20
- Plant response rating, Morningglory [5, 21]: 80
- Barnyardgrass plant response rating [6, 23]: 70
- Plant response rating, Barnyardgrass [6, 20]: 90
- Plant response rating, Barnyardgrass [6, 17]: 40
- Plant response rating, Barnyardgrass [6, 21]: 90
- Wheat plant response rating [7, 23]: 0
- Plant response rating, Wheat [7, 20]: 10
- Plant response rating, Wheat [7, 17]: 0
- Plant response rating, Wheat [7, 21]: 0
- Corn plant response rating [8, 23]: 0
- Plant response rating, Corn [8, 20]: 40
- Plant response rating, Corn [8, 17]: 0
- Plant response rating, Corn [8, 21]: 0
- Foxtail, Giant plant response rating [9, 23]: 80
- Plant response rating, Foxtail, Giant [9, 20]: 90
- Plant response rating, Foxtail, Giant [9, 17]: 70
- Plant response rating, Foxtail, Giant [9, 21]: 90
- Velvetleaf plant response rating [10, 23]: 100
- Plant response rating, Velvetleaf [10, 20]: 100
- Plant response rating, Velvetleaf [10, 17]: 80
- Plant response rating, Velvetleaf [10, 21]: 100
- Crabgrass, Large plant response rating [11, 23]: 80
- Plant response rating, Crabgrass, Large [11, 20]: 90
- Plant response rating, Crabgrass, Large [11, 17]: 90
- Plant response rating, Crabgrass, Large [11, 21]: 100
- Pigweed plant response rating [12, 23]: 90
- Plant response rating, Pigweed [12, 20]: 100
- Plant response rating, Pigweed [12, 17]: 90
- Plant response rating, Pigweed [12, 21]: 100
